Data set [1] deals with NS5B protein (Hepatitis C virus genotype 1b, UniProt P26663). The experiment in a line: biochemical. The data set is classed as binding. The settings on record: for Kd: dissociation equilibrium constant, NS5B immobilized on CM5 chip, read-out: SPR on NS5B KD. As for the experimental part:
The SPR experiments were performed using a Biacore T200 optical biosensor (Biacore Life Sciences, GE Healthcare). The NS5B protein at 50 μg/ml prepared in buffer of 10 mM sodium acetate (pH 5.5) was immobilized by standard amine coupling to a CM5 biosensor chip. The compounds were injected for 60 s at a flow rate of 30 μL/min using in concentration series between 1 and 250 μM in running buffer (1 × PBS with 5% DMSO). The dissociation was monitored for 300 s. Raw data collected on an SPR biosensor were further processed to eliminate any artifacts such as nonspecific binding and discrepancies in buffer composition. All data processing and analysis was performed using the Biacore T200 Evaluation Software.

The target in data set [2] is T1, HCV NS5B protein (Hepatitis C virus genotype 1b, UniProt P26663).
T1 construct: Purified HCV NS5B protein and HCV (-) 3’ T RNA template were obtained as described previously
T1 sequence (P26663 2420-3010): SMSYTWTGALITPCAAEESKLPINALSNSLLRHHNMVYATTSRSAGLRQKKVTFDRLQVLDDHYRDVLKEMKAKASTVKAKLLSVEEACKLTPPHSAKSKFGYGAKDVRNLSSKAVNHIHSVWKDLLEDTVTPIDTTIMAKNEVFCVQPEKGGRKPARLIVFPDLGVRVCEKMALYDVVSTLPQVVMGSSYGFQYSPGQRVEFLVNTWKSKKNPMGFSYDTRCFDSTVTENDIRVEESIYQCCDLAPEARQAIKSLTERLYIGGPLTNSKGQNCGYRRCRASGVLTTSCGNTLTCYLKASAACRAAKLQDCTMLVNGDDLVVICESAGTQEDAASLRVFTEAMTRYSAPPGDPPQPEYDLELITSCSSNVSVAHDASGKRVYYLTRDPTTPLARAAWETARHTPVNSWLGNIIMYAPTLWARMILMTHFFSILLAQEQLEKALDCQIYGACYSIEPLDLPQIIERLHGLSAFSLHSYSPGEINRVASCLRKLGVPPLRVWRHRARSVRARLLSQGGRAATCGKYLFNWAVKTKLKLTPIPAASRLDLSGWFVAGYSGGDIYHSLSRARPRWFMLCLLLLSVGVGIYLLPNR
Nature of the data set: biochemical. Conditions: for IC50: in vitro enzyme activity, 2'-O-Me-CTP positive control, read-out: NS5B inhibition assay IC50. The procedure:
The inhibitory effects of the tested reagents on in vitro NS5B activity were determined by NS5B-catalyzed RNA synthesis assay as described previously. Purified HCV NS5B protein and HCV (-) 3’ T RNA template were obtained as described previously. The tested reagents were added at a variety of concentrations in 50 μl reaction mixture consisting of 20 mM HEPES (pH 8.0), 1.5 mM MnCl2, 100 mM ammonium acetate, 1 mM DTT, 500 μM GTP, 250 μM each of CTP, ATP and UTP, 40U of RNasin (Biostar, Canada), 2 μg/ml HCV (-) 3’ TRNA template and 300 ng purified NS5B protein. After 2 h at 30°C, the reaction was stopped by 100 mM EDTA and RNA was purified using the RNaid Kit (Qbiogene). To determine NS5B-catalyzed RNA synthesis, real-time RT-PCR was performed. cDNA was synthesized using AMV-reverse transcriptase (TAKARA, Japan) and the primer targeted to NS5B-catalyzed RNA product (5’-[…]-3’) and then digested with RNAase. PCR was carried out using RNA product–specific primers (forward, […], reverse 5’-[…]-3’, probe, 5’-[…]-3’) and TaqMan RT-PCR Kit according to the instruction. 50% inhibitory concentrations (IC50) were calculated using Statistical SPSS program version 11.5 by probit analysis of regression.

Data set [3] concerns HCV (JFH-1, genotype 2a). Nature of the data set: microbe, parasite or virus in culture. It counts as cell-based, Hepatitis C virus. The settings on record: for EC50: luminescence reduced by 50% in Huh7.5.1 cells, mean of three experiments, read-out: Anti-HCV activity virus assay JFH1 EC50; for SI (selective index): ratio of CC50 to EC50. An excerpt: The HCV virus assay was constructed by using the method developed as previously described, albeit with a slight modification. Briefly, the plasmid of pRluc-JFH-1 was constructed as following. Based on the plasmid of pJFH-1, as a gift from Apath,L.L.C., a humanized Renilla luciferase reporter gene was introduced into the C-terminus of NS5A in the JFH-1 genome. The plasmid phRluc-JFH-1 was made via digestion with the XbaI restriction enzyme and used as a template for RNA transcription. The virus transcripts were prepared in vitro by using the Ambion MEGAscript Kits, and then 10 μg of RNA was mixed with […] of Huh7.5.1, which was gifted by Jin Zhong (Institute Pasteur of Shanghai, Chinese Academy of Science), at a concentration of 1×10^7 cells/ml. After electroporation, the Huh7.5.1 cells containing virus transcripts were seeded in a 10-cm dish. After the cells were cultured for 4 days, the supernatant was collected and filtered to obtain the stock solution of the hRluc-JFH-1 virus. To obtain the virus titer, the virus stocks were diluted at a gradient of 1:10, and the Huh7.5.1 cells were incubated for 48h at 37°C. Then, the cells were harvested, and the luminescence was detected via the manufacturer’s protocol of the Renilla-Glo™ Luciferase Assay System (Promega).
Huh7.5.1 cells were seeded in 96-well plates at a density of 2 ×10^4 cells per well at 37°C overnight. All of the synthetic compounds were diluted with DMSO to 10 mM of stock solution. The initial concentration of compounds was 20 μM and then diluted at a gradient of 1:4 to concentrations ranging from 20 μM to 0.02 μM, containing 0.5% DMSO. For the HCVcc system, serial diluted compounds were mixed with a certain titer of HCVcc-hRluc-JFH1 virus, and the final concentration of HCVcc-hRluc-JFH1 virus titer was diluted to the numbers of relative luminescence units (RLU) ranging from 20,000 to 50,000 RLU and then added to the Huh7.5.1 cells. Then, the cells were cultured for 2 days at 37°Cand harvested. The luminescence was detected via the manufacturer’s protocol of the Renilla-Glo™ Luciferase Assay System. EC50 is the concentration of the compound at which the HCV luminescence level in the Huh7.5.1 cells is reduced by 50%. The values of EC50 were plotted by the GraphPad Prism 5 software.

The nature of data set [4]: Cell proliferation assay (WST-1). The settings on record: human. The data set is classed as cell-based. As for the experimental part:
(§1) Huh7.5.1 cells were seeded in 96-well plates at a density of 2 × 10^4 cells per well overnight. Cells were incubated with serial diluted compounds for 48 h. The viability of Huh7.5.1 cells was determined in 96-well tissue culture plates using the cell proliferation reagent WST-1 (Roche), and absorbance (OD450 / reference OD630) was measured to detect the cytotoxicity of compounds according to the manufacturer’s protocol for the Cell Proliferation Reagent WST-1. CC50 is the concentration of the compound at which the cell growth was inhibited by 50%. The values of CC50 were plotted by the GraphPad Prism 5 software.

In data set [5] the test system is Huh7.5.1 cells. The experiment in a line: Cell proliferation assay (WST-1). It counts as cell-based. The procedure: as §1
In general terms: Formazan colour is commonly taken as a measure of viable cells.

Data set [6] has as its system HCV (JFH-1, genotype 2a). It counts as cell-based, Hepatitis C virus. Conditions: at a concentration of 12.5 μM.
Data set [7] addresses NS5B polymerase. The settings on record: S2 Table, validation set of the RF model; ref DOI in column Reference (DOI); cited from earlier work.
Setting [8] is: Huh7.5.1 cells, 48 h, WST-1, mean of three experiments, read-out: CC50.

Like-named read-outs stand apart in the source and are kept apart here.

The Kd is the equilibrium constant for the complex coming apart. By IC50 is commonly meant the midpoint of a concentration-inhibition curve. As a reminder, the EC50 is the concentration giving half of the maximal effect. A word on the CC50: it is the concentration giving 50% cytotoxicity. What is called pKD is −log10 of the KD, conventionally taken in molar units. Usually pIC50 stands for −log10 of the IC50, conventionally taken in molar units. The low end stands for a large IC50, the high end for a small IC50.

Sequence of NS5B protein (P26663 2420-3010): as above

`COc1cc(C(=O)NNS(=O)(=O)c2ccccc2)cc(OCc2ccccc2)c1OC` [N1]: the equilibrium dissociation constant (Kd) in data set [1] came to 62.9 µM. The IC50 in data set [2] stood at 3.63 µM. The EC50 in data set [3] (Hepatitis C virus, Huh-7.5.1) was over 12.5 µM. In addition, the CC50 at 48 h in data set [4] (setting [8]) was over 100 µM.
Regarding `O=C(CSc1nc2ccccc2o1)Nc1cc(C(F)(F)F)cc(C(F)(F)F)c1` [N2], in data set [1], the dissociation constant Kd is 4.67 µM. For the same molecule, the half-maximal inhibitory concentration (IC50) in data set [2] amounted to 3 µM. In data set [3] (Hepatitis C virus, Huh-7.5.1), the EC50 was found to be 1.61 µM. Further, the “SI (selective index)” value in data set [3] worked out at 32.1. The 50% cytotoxic concentration (CC50) at 48 h in data set [4] (setting [8]) was 51.3 µM. The cellular cytotoxicity result in data set [5] (at a concentration of 12.5 μM) is on record as “no cellular cytotoxicity”. Besides, the “HCV virus titers suppressed” value in data set [6] is reported as about 99%.
In the case of `Cc1ccc(O)c(NC(=O)COc2ccc3c(=O)c(-c4ccccc4)c(C)oc3c2)c1` [N4], in data set [1], the dissociation constant (Kd) is 123 µM. In data set [2], the IC50 was found to be 2.01 µM. Besides, the EC50 in data set [3] (Hepatitis C virus, Huh-7.5.1) was over 12.5 µM. Further, the 50% cytotoxic concentration (CC50) at 48 h in data set [4] (setting [8]) is over 100 µM.
For `Cc1ccc(N(Cc2cc3cccc(C)c3nc2O)S(=O)(=O)c2ccccc2)c(C)c1` [N5, N-(2,4-dimethylphenyl)-N-((8-methyl-2-oxo-1,2-dihydroquinolin-3-yl)methyl)benzenesulfonamide], in data set [2], the IC50 turned out to be 2.2 µM. For the same molecule, the concentration giving a half-maximal response (EC50) in data set [3] (Hepatitis C virus, Huh-7.5.1) came to 10.9 µM. The half-maximal cytotoxic concentration (CC50) at 48 h in data set [4] (setting [8]) was over 100 µM.
`CC(C)OC(=O)[C@H](C)N[P@](=O)(OC[C@H]1O[C@@H](n2ccc(=O)[nH]c2=O)[C@](C)(F)[C@@H]1O)Oc1ccccc1` [PSI-7977, sofosbuvir, reference compound]: in data set [3] (Hepatitis C virus, Huh-7.5.1), the concentration for a half-maximal effect (EC50) is 0.49 µM. Moreover, in data set [3], the “SI (selective index)” value is given as over 40.82. In data set [4] (setting [8]), the half-maximal cytotoxic concentration (CC50) at 48 h was over 20 µM.
`Nc1cc(Cn2c(C(=O)NS(=O)(=O)c3ccc(O)cc3)c(-c3ccc[nH]c3=O)c3cc(Cl)ccc32)ccn1` [compound 137]: in data set [7], the IC50 is over 50 µM.
`CCC[C@H](NC(=O)[C@@H]1[C@H]2CCC[C@H]2CN1C(=O)[C@@H](NC(=O)[C@@H](NC(=O)c1cnccn1)C1CCCCC1)C(C)(C)C)C(=O)C(=O)NC1CC1` [telaprevir, reference compound]: in data set [3] (Hepatitis C virus, Huh-7.5.1), the EC50 worked out at 0.02 µM. In data set [3], the “SI (selective index)” value is listed as over 500. The molecule also returned a CC50 at 48 h in data set [4] of over 10 µM.
For the molecule “N-(8-fluoro-4-oxo-1,4-dihydroquinoline-3-carbonyl)-1,2-dimethyl-1H-imidazole-4-sulfonohydrazide [N3]”, in data set [1], the dissociation constant (Kd) amounted to 86.1 µM. For the same molecule, the pKD in data set [1] (from SPR KD) is reported as 4.06. The negative logarithm of the IC50 (pIC50) in data set [2] (from NS5B inhibition IC50) is 4.62. Besides, the half-maximal inhibitory concentration (IC50) in data set [2] was 23.8 µM. Further, in data set [3], the EC50 was found to be 21.3 µM. In addition, the 50% cytotoxic concentration (CC50) in data set [5] is over 100 µM.
